Converted amounts (≈) assume the structure as drawn.

Some test systems named below: Aspergillus fumigatus; Sporothrix schenckii; Bacillus cereus; Shigella flexneri; Bacillus subtilis; Aeromonas hydrophila; Candida albicans; Pseudomonas aeruginosa; Vibrio alginolyticus; Staphylococcus aureus; Escherichia coli; Cryptococcus neoformans; Vibrio parahaemolyticus; Escherichia coli MG1655; Bacillus subtilis 168 HT; Escherichia coli UB1005.
Assay in all cases: ≥ marks a high value that may be exact or a test limit, other limits are often not marked, values filed in µg/mL are converted to µM
Assay [1] has as its system Bacillus subtilis ATCC 6633.
Assay [2] relates to Escherichia coli ATCC 10536.
The subject of assay [3] is Escherichia coli DH5alpha.
Assay [4] relates to Staphylococcus aureus ATCC 9144.
The test system of assay [5] is Trichophyton mentagrophytes.
The test system of assay [6] is Klebsiella pneumoniae ATCC 27736.
For assay [7], the system named is Candida parapsilosis ATCC 22019.
For assay [8], the system named is Pseudomonas aeruginosa ATCC BAA-427.
Assay [9] relates to Staphylococcus aureus ATCC 25923.
Assay [10] concerns Escherichia coli ATCC 9637.
Assay [11] has as its system Corynebacterium glutamicum.
The subject of assay [12] is Staphylococcus epidermidis.
Assay [13] has as its system Pseudomonas aeruginosa H744.
The subject of assay [14] is Escherichia coli DSM 1103.
The subject of assay [15] is Streptococcus pneumoniae DSM 11865.
In assay [16] the test system is Burkholderia cepacia ATCC 25416.
The subject of assay [17] is Pseudomonas aeruginosa Z61.
In assay [18] the test system is Pseudomonas aeruginosa K799.
Assay [19] deals with Salmonella enterica subsp. enterica serovar Typhimurium ATCC 14028s.
Assay [20] relates to Klebsiella pneumoniae DSM 681.
The subject of assay [21] is Pseudomonas aeruginosa H374.
Assay [22] has as its system Pseudomonas aeruginosa DSM 1128.
Assay [23] has as its system Pseudomonas aeruginosa H547.

Regarding `CC[C@H](C)[C@H](NC(=O)CN)C(=O)NCC(=O)N[C@@H](C)C(=O)N[C@H](C(=O)N[C@@H](CC(C)C)C(=O)N[C@@H](CCCCN)C(=O)N[C@H](C(=O)N[C@@H](C)C(=O)N[C@H](C(=O)N[C@H](C(=O)NCC(=O)N[C@@H](C)C(=O)N1CCC[C@H]1C(=O)N[C@@H](C)C(=O)N[C@@H](CC(C)C)C(=O)N[C@H](C(=O)N[C@@H](CO)C(=O)N[C@@H](Cc1c[nH]c2ccccc12)C(=O)N[C@H](C(=O)N[C@@H](CCCCN)C(=O)N[C@@H](CCCN=C(N)N)C(=O)N[C@@H](CCCCN)C(=O)N[C@@H](CCCN=C(N)N)C(=O)N[C@@H](CCC(N)=O)C(=O)N[C@@H](CCC(N)=O)C(N)=O)[C@@H](C)CC)[C@@H](C)CC)[C@@H](C)O)[C@@H](C)O)C(C)C)C(C)C` [GIGAVLKVATTGAPALISWIKRKRQQ], the MIC was 20 µM (≈ 55.2 µg/mL) in assay [1], 4.5 µM (≈ 12.4 µg/mL) in assay [2], 4.3 µM (≈ 11.9 µg/mL) in [3] and 20 µM (≈ 55.2 µg/mL) in [4].

Take `CC(C)C[C@H](NC(=O)[C@H](CC(C)C)NC(=O)[C@H](CCCN=C(N)N)NC(=O)[C@H](CCCN=C(N)N)NC(=O)[C@H](C)NC(=O)[C@H](Cc1c[nH]c2ccccc12)NC(=O)[C@H](CCCN=C(N)N)NC(=O)[C@H](C)NC(=O)[C@H](C)NC(=O)[C@H](CCCN=C(N)N)NC(=O)[C@H](CCCN=C(N)N)NC(=O)[C@@H](N)CC(C)C)C(=O)N[C@@H](CCCN=C(N)N)C(=O)N[C@@H](CCCN=C(N)N)C(=O)O` [LRRAARWARRLLRR]: the MIC is at least 54 µM in assay [5]; 3.38 µM (≈ 6.25 µg/mL) in assay [6]; 27 µM (≈ 50 µg/mL) against Aspergillus fumigatus; 6.76 µM (≈ 12.5 µg/mL) against Sporothrix schenckii; 6.76 µM (≈ 12.5 µg/mL) in [7]; 13.5 µM (≈ 25 µg/mL) in assay [8]. The minimum inhibitory concentration (MIC) amounted to 1.7 µM (≈ 3.15 µg/mL) in assay [9], 13.5 µM (≈ 25 µg/mL) in assay [10] and 1.7 µM (≈ 3.15 µg/mL) in the assay with Bacillus cereus.

As for `CC[C@H](C)[C@H](NC(=O)[C@H](CC(C)C)NC(=O)[C@H](CCC(=O)O)NC(=O)[C@@H]1CCCN1C(=O)[C@H](CC(C)C)NC(=O)[C@H](Cc1cnc[nH]1)NC(=O)[C@@H](NC(=O)[C@H](CCCCN)NC(=O)[C@@H](NC(=O)[C@H](Cc1ccccc1)NC(=O)[C@H](CCCCN)NC(=O)[C@H](CCCN=C(N)N)NC(=O)[C@H](CS)NC(=O)[C@H](CC(C)C)NC(=O)[C@H](CO)NC(=O)[C@H](CCCCN)NC(=O)[C@H](CC(C)C)NC(=O)[C@H](CC(C)C)NC(=O)CN)C(C)C)C(C)C)C(=O)N[C@@H](CCC(=O)O)C(=O)N[C@@H](CCC(=O)O)C(=O)N[C@@H](CC(C)C)C(=O)N[C@H](C(=O)N[C@H](C(=O)N[C@H](C(=O)N[C@@H](CC(=O)O)C(=O)O)[C@@H](C)O)[C@@H](C)O)[C@@H](C)O` [GLLKSLCRKFVKVHLPELIEELTTTD], the minimum inhibitory concentration (MIC) in assay [11] was 8.84 µM (≈ 26.4 µg/mL); in assay [12], at least 50 µM; with Shigella flexneri, at least 50 µM; against Bacillus subtilis, at least 50 µM; in the assay with Aeromonas hydrophila, at least 50 µM; against Candida albicans, above 50 µM. Besides, the minimum inhibitory concentration (MIC) against Pseudomonas aeruginosa was above 50 µM; in the assay with Vibrio alginolyticus, at least 50 µM; in the assay with Staphylococcus aureus it was above 50 µM; in the assay on Escherichia coli it was 35.4 µM (≈ 105 µg/mL); with Cryptococcus neoformans it was at least 50 µM; in the assay with Bacillus cereus, at least 50 µM. For the same molecule, in the assay on Vibrio parahaemolyticus, the MIC is at least 50 µM.

Consider `CC[C@H](C)[C@H](N)C(=O)N[C@@H](CO)C(=O)N[C@@H](CCCN=C(N)N)C(=O)N[C@@H](C)C(=O)N[C@@H](CS)C(=O)N[C@@H](CC(C)C)C(=O)N[C@H](C(=O)N[C@@H](CCSC)C(=O)N[C@@H](CCCCN)C(=O)N[C@H](C(=O)N[C@@H](CCCN=C(N)N)C(=O)N[C@@H](CCCN=C(N)N)C(=O)N[C@@H](CCCCN)C(=O)N[C@@H](CCCCN)C(=O)O)C(C)C)[C@@H](C)CC` [ISRACLIMKVRRKK], for which the MIC was at least 37.6 µM against Escherichia coli MG1655 and 9.4 µM (≈ 16 µg/mL) in the assay with Bacillus subtilis 168 HT.

On to `CC[C@H](C)[C@H](NC(=O)CNC(=O)[C@@H](NC(=O)[C@H](CCCCN)NC(=O)[C@H](CCCCN)NC(=O)[C@H](Cc1ccccc1)NC(=O)[C@H](CC(C)C)NC(=O)[C@H](CCCCN)NC(=O)[C@H](Cc1c[nH]c2ccccc12)NC(=O)[C@@H](N)CCCCN)[C@@H](C)CC)C(=O)NCC(=O)N[C@@H](C)C(=O)N[C@H](C(=O)N[C@@H](CC(C)C)C(=O)N[C@@H](CCCCN)C(=O)N[C@H](C(=O)N[C@@H](CC(C)C)C(=O)N[C@H](C(=O)N[C@H](C(=O)NCC(=O)N[C@@H](CC(C)C)C(=O)N1CCC[C@H]1C(=O)N[C@@H](C)C(=O)N[C@@H](CC(C)C)C(=O)N[C@@H](CCCCN)C(=O)N[C@@H](CC(C)C)C(=O)N[C@H](C(=O)N[C@@H](CCCCN)C(=O)O)[C@@H](C)O)[C@@H](C)O)[C@@H](C)O)C(C)C)C(C)C` [KWKLFKKIGIGAVLKVLTTGLPALKLTK], for which the minimum inhibitory concentration (MIC) with Escherichia coli UB1005 stood at 0.652 µM (≈ 2 µg/mL); in assay [13], 0.652 µM (≈ 2 µg/mL); in assay [14], 2.04 µM (≈ 6.25 µg/mL); in assay [15], 2.04 µM (≈ 6.25 µg/mL); in assay [16], 20.9 µM (≈ 64 µg/mL); in assay [17], 0.652 µM (≈ 2 µg/mL). Moreover, the MIC is 0.979 µM (≈ 3 µg/mL) in [18]; 0.979 µM (≈ 3 µg/mL) in [19]; 2.04 µM (≈ 6.25 µg/mL) in assay [20]; 2.04 µM (≈ 6.25 µg/mL) in assay [9]; 0.652 µM (≈ 2 µg/mL) in assay [21]; 1.02 µM (≈ 3.13 µg/mL) in [22]. In assay [23], this molecule registered a minimal inhibitory concentration (MIC) of 1.3 µM (≈ 4 µg/mL).

(Values after DBAASP.)
